Experiment [1] addresses Falcipain 2 (Plasmodium falciparum, UniProt Q8I6U4). In words: Cysteine protease inhibition, progress curve method, falcipain. The format is biochemical. Conditions: 10 uM Cbz-Leu-Arg-AMC, 100 mM Na acetate pH 5.5, 5 mM cysteine. As to the method: Standard assay conditions for the determination of kinetic constants used 10 uM fluorogenic peptide substrate, Cbz-Phe-Arg-AMC for the cysteine proteases from Leishmania spp and Schistosoma Mansoni, Cbz-Leu-Arg-AMC for the cysteine proteases from Plasmodium falciparum and Trypanosoma brucei rhodesiensi, and Ac-Lys-Glu-Lys-Leu-Arg-AMC (4 uM final substrate concentration) for the cysteine protease from Trypoanosoma cruzi, and were determined in 100 mM Na acetate at pH 5.5 containing 5 mM cysteine. Stock substrate solutions were prepared at concentrations of […] in DMSO with 10 uM (4 uM for Ac-Lys-Glu-Lys-Leu-Arg-AMC) final substrate concentration in the assays. The final DMSO concentration was 2% and the final volume was 100 uL. All assays were conducted at ambient temperature. Product progress curves were generated over 20 to 30 minutes following formation of AMC product.
Potential inhibitors were evaluated using the progress curve method. Assays were carried out in the presence of variable concentrations of test compound. Reactions were initiated by addition of enzyme to buffered solutions of inhibitor and substrate. Data analysis was conducted according to one of two procedures depending on the appearance of the progress curves in the presence of inhibitors. For those compounds whose progress curves were linear, apparent inhibition constants (Ki,app) were calculated according to equation 1 (Brandt et al., Biochemitsry, 1989, 28, 140):
v=VmA/[Ka(1+I/Ki,app)+A] (1)
Where v is the velocity of the reaction with maximal velocity Vm, A is the concentration of substrate with Michaelis constant of Ka, and I is the concentration of inhibitor.
[AMC]=vsst+(v0−vss)[1−exp (−kobst)]/kobs (2)
Where [AMC] is the concentration of product formed over time t, v0 is the initial reaction velocity and vss is the final steady state rate. Values for kobs were then analyzed as a linear function of inhibitor concentration to generate an apparent second order rate constant (kobs/inhibitor concentration or kobs/[I]) describing the time-dependent inhibition. A complete discussion of this kinetic treatment has been fully described (Morrison et al., Adv. Enzymol. Relat. Areas Mol. Biol., 1988, 61, 201).
Exemplary inhibition data for the compounds used in the present method collected in accordance with the above-described procedure are listed in Table I.

The target of experiment [2] is Rhodazain (Trypanosoma brucei rhodesiense, UniProt Q95PM0). The experiment in a line: Cysteine protease inhibition, progress curve method, rhodazain. In kind it is biochemical, Trypanosoma brucei rhodesiensi. Conditions: Rhodazain Ki (nM), 10 uM Cbz-Leu-Arg-AMC, 100 mM Na acetate pH 5.5, 5 mM cysteine.
Chain of Rhodazain (Q95PM0 entry or part of it): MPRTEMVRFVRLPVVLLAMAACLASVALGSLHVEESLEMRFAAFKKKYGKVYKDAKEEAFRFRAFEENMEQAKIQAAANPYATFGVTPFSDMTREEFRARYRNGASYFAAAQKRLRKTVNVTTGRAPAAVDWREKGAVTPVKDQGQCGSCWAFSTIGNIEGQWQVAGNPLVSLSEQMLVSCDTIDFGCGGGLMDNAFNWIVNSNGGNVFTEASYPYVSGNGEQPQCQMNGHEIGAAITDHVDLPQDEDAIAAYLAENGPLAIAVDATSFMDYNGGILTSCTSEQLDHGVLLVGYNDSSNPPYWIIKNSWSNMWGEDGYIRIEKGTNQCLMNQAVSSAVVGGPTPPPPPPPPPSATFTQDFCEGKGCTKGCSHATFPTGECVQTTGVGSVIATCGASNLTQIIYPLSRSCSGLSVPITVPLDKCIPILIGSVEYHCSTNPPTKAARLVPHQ
Experiment [3] concerns the target Cruzain (Trypanosoma cruzi, UniProt P25779). The experiment in a line: Cysteine protease inhibition, progress curve method, cruzain. Conditions: 4 uM Ac-Lys-Glu-Lys-Leu-Arg-AMC, 100 mM Na acetate pH 5.5, 5 mM cysteine; read-out: Cruzain Ki. The format is biochemical. The method, boiled down: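 Buffer was 100 mM sodium acetate pH 5.5 with 5 mM cysteine and 2% DMSO, at ambient temperature; reactions started with enzyme, and AMC formation was followed for 20–30 min. Substrates: Leishmania and Schistosoma, 10 uM Cbz-Phe-Arg-AMC; falcipain, 10 uM Cbz-Leu-Arg-AMC; cruzain, 4 uM Ac-Lys-Glu-Lys-Leu-Arg-AMC. Linear curves gave Ki,app; curved ones gave kobs/[I].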

Chain of Falcipain 2 (Q8I6U4 244-484): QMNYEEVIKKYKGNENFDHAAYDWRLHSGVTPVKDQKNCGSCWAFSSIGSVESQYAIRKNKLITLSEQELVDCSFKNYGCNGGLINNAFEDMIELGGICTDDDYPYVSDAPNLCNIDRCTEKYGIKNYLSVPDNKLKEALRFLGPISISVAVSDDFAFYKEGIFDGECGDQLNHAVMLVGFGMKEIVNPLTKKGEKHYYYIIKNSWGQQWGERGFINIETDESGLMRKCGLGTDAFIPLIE
Chain of Cruzain (P25779 123-337): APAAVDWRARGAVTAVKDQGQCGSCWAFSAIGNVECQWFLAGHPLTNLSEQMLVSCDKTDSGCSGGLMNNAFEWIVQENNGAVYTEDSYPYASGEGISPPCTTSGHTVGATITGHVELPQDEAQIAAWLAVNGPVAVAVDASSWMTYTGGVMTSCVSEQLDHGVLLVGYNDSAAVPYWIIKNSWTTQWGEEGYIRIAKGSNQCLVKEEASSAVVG

For `O=C(N[C@@H](CC1CCCCC1)C(=O)N[C@H]1CCCN(S(=O)(=O)c2cccc[n+]2[O-])CC1=O)c1ccc(-c2cccc(C(F)(F)F)c2)o1` [Example 169, 5-(3-Trifluoromethyl-phenyl)-furan-2-carboxylic acid {(S)-2-cyclohexyl-1-[3-oxo-1-(1-oxy-pyridine-2-sulfonyl)-azepan-4-ylcarbamoyl]-ethyl}-amide], the inhibitory constant (Ki) in experiment [1] stood at 43 nM.
`[2H]C1(NC(=O)C(CC(C)C)NC(=O)c2cc3ccccc3o2)CCCN(S(=O)(=O)c2ccccn2)C([2H])([2H])C1=O` [Example 100, Benzofuran-2-carboxylic acid {(S)-3-methyl-1-[(2,2′,4-tridueterio)-3-oxo-1-(pyridine-2-sulfonyl)-azepan-4-ylcarbamoyl]-butyl}amide]: the Ki turned out to be 2.5 nM in experiment [2] and 6.4 nM in experiment [1].
As to `COc1cccc(S(=O)(=O)N2CCC[C@H](NC(=O)[C@H](CC(C)C)NC(=O)c3cc4cccc(OC)c4o3)C(=O)C2)c1` [Example 138, 7-Methoxy-benzofuran-2-carboxylic acid-{(S)-1-[1-(3-methoxy-benzenesulfonyl)-3-oxo-azepan-4-ylcarbamoyl]-3-methyl-butyl}-amide], the affinity in experiment [1], expressed as Ki, was 5.6 nM.
`COc1ccc(S(=O)(=O)N2CCCC(NC(=O)C(CC(C)C)NC(=O)c3ccc4c(c3)OCO4)C(=O)C2)cc1` (stereo in doubt) [Example 73, Benzo[1,3]dioxole-5-carboxylic acid {(S)-1-[1-(4-methoxy-benzenesulfonyl)-3-oxo-azepan-4-ylcarbamoyl]-3-methyl-butyl}-amide] yielded a Ki in experiment [1] of 5.2 nM.
Still for that read-out and setting: then `COc1ccc(S(=O)(=O)N2CCC[C@@H](NC(=O)[C@H](CC(C)C)NC(=O)c3ccc(OC)c(OC)c3)C(=O)C2)cc1` [Example 107, 3,4-Dimethoxy-N—{(S)-1-[1-(4-methoxy-benzenesulfonyl)-3-oxo-azepan-4-ylcarbamoyl]-3-methyl-butyl}-benzamide], with 5.9 nM; and `CC(C)C[C@@H](NC(=O)c1ccc([N+](=O)[O-])o1)C(=O)N[C@@H]1CCCN(S(=O)(=O)c2ccccn2)CC1=O` (stereo in doubt) [Example 35, 5-Nitro-furan-2-carboxylic acid {(S)-3-methyl-1-[3-oxo-1-(pyridine-2-sulfonyl)-azepan-4-ylcarbamoyl]-butyl}amide], with 96 nM; and `COc1cccc2cc(C(=O)N[C@@H](CC(C)C)C(=O)N[C@H]3CCCN(S(=O)(=O)c4ccc(Cl)cc4)CC3=O)oc12` [Example 133, 7-Methoxy-benzofuran-2-carboxylic acid-{(S)-1-[1-(4-chloro-benzenesulfonyl)-3-oxo-azepan-4-ylcarbamoyl]-3-methyl-butyl}-amide], with 3.4 nM.
For the molecule `CC(C)C[C@@H](NC(=O)c1cc2ccccc2s1)C(=O)N[C@@H]1CCCN(S(=O)(=O)c2cccc[n+]2[O-])CC1=O` [Example 46, Benzo[b]thiophene-2-carboxylic acid {(S)-3-methyl-1-[3-oxo-1-(1-oxy-pyridine-2-sulfonyl)-azepan-4-ylcarbamoyl]-butyl}amide], the Ki in experiment [1] stood at 5.3 nM; in experiment [3], 6.1 nM.
In turn, `CC(C)C[C@@H](NC(=O)c1cc2cc(OCCN3CCOCC3)ccc2o1)C(=O)NC1CCCN(C(=O)Cc2cccc(-c3ccccn3)c2)CC1=O` (stereo partly drawn) [Example 3, 5-(2-morpholino-4-yl-ethoxy)-benzofuran-2-carboxylic acid ((S)-3-methyl-1-{3-oxo-1-[2-(3-pyridin-2-yl-phenyl)acetyl]-azepan-4-ylcarbamoyl}-butyl)amide] gave a Ki in experiment [1] of 3 nM.
For `COc1ccc2oc(C(=O)N[C@H](CC(C)C)C(=O)N[C@@H]3CCCN(S(=O)(=O)c4ccccn4)CC3=O)cc2c1` (single isomer, unassigned) [Example 69], the figures for the Ki in experiment [2] and in experiment [1] were 2.2 nM and 5.6 nM, respectively.
For `Cc1oc(-c2ccccc2)nc1C(=O)N[C@H](CC(C)C)C(=O)NC1CCCN(S(=O)(=O)c2cccc[n+]2[O-])CC1=O` (stereo partly drawn) [Example 117, 5-Methyl-2-phenyl-oxazole-4-carboxylic acid {(S)-3-methyl-1-[3-oxo-1-(1-oxy-pyridine-2-sulfonyl)-azepan-4-ylcarbamoyl]-butyl}amide], the Ki in experiment [1] turned out to be 6.8 nM; in experiment [3], 14 nM.
As to `CC(C)C[C@@H](NC(=O)c1cc2cc(OCCN3CCNCC3)ccc2o1)C(=O)N[C@@H]1CCCN(S(=O)(=O)c2ccccn2)CC1=O` [Example 23, 5-(2-Piperizin-1-yl-ethoxy)-benzofuran-2-carboxylic acid {(S)-3-methyl-1-[3-oxo-1-(pyridine-2-sulfonyl)-azepan-4-ylcarbamoyl]-3-butyl}-amide], in experiment [1], the Ki amounted to 14 nM.
Take `Cc1cccnc1S(=O)(=O)N1CCC[C@@H](NC(=O)[C@@H](CC(C)C)NC(=O)c2oc3ccccc3c2C)C(=O)C1` (stereo in doubt) [Example 161, 3-Methyl-benzofuran-2-carboxylic acid {(S)-3-methyl-1-[1-(3-methyl-pyridine-2-sulfonyl)-3-oxo-azepan-4-ylcarbamoyl]-butyl}amide]: the Ki was 6.4 nM in experiment [2] and 7.8 nM in experiment [3].
For `CC(C)C[C@H](NC(=O)c1cc2ccccc2o1)C(=O)N[C@H]1CCCN(S(=O)(=O)c2nccs2)CC1=O` [Example 130, Benzofuran-2-carboxylic acid {(S)-3-methyl-1-[3-oxo-1-(thiazole-2-sulfonyl)-azepan-4-ylcarbamoyl]-butyl}amide] the same measures were 2.6 nM and 2.5 nM.
In experiment [1], `CC(C)C[C@@H](NC(=O)c1cc2cc(OCCN3CCCCC3)ccc2o1)C(=O)N[C@@H]1CCCN(S(=O)(=O)c2ccccc2)CC1=O` (stereo in doubt) [Example 9, 5-(2-Piperidin-1-yl-ethoxy)-benzofuran-2-carboxylic acid [(S)-1-(1-benzenesulfonyl-3-oxo-azepan-4-ylcarbamoyl)-3-methyl-butyl]amide] showed a Ki of 65 nM.
The same measure, in the same setting: with `CC(C)C[C@@H](NC(=O)c1cc2cc(OCCN3CCOCC3)ccc2o1)C(=O)N[C@@H]1CCCN(C(=O)Nc2ccccc2)CC1=O` [Example 5, 4-((S)-4-Methyl-2-{[5-(2-morpholino-4-yl-ethoxy)-benzofuran-2-carbonyl]amino}-pentanoylamino)-3-oxo-azepane-1-carboxylic acid phenylamide] the figure was 34 nM.
As to `CC(C)C[C@@H](NC(=O)c1ccc2ccccc2n1)C(=O)N[C@@H]1CCCN(S(=O)(=O)c2ccccn2)CC1=O` (single isomer, unassigned) [Example 151], the values for the Ki in experiment [2] and in experiment [3] were 6.1 nM and 7.1 nM, respectively.
For `CC(C)C[C@H](NC(=O)c1ccc2ccccc2n1)C(=O)N[C@H]1CCCN(C(=O)Nc2ccccc2F)CC1=O` [Example 219, Quinoline-2-carboxylic acid {(S)-1-[1-(2-fluoro-phenylcarbamoyl)-3-oxo-azepan-4-ylcarbamoyl]-3-methyl-butyl}-amide], the Ki in experiment [2] came out at 5.5 nM; in experiment [3] it was 8.4 nM.
Take `Cc1ccc(C(=O)NC(CC(C)C)C(=O)N[C@@H]2CCCN(S(=O)(=O)c3cccc[n+]3[O-])CC2=O)s1` (stereo partly drawn) [Example 79, 5-Methyl-thiophene-2-carboxylic acid {(S)-3-methyl-1-[3-oxo-1-(1-oxy-1pyridine-2-sulfonyl)-azepan-4-ylcarbamoyl]-butyl}amide]: the Ki in experiment [2] was 8 nM; in experiment [3] it was 16 nM.

The values are drawn from US20030044399A1, “Method of treatment” (SmithKline Beecham Corporation, priority 1998, published 2003).
